Results as given in US5455356A, “Fungicidal 1-aryl-1-[α-(triazolyl)alkyl]-1-silacycloalkanes and their preparation methods” (priority 1993, dated 1995).

Assays:
Format in all cases: cell-based
GC = assay: In vitro mycelial/spore growth on potato-sucrose-agar, percent disease control (GC); details: read-out: % controlled, GC; for inhibition of growth at 50 ppm: GC
Experimental: (§1) The compounds of this invention were dissolved respectively in acetone in an amount equal to 10% of the final volume and then in purified water at the concentration of 100 ppm and 50 ppm.
(§2) Each of the solution was mixed with potato-sucrose-agar medium in 6" petri dish and one of the fungi was spotted at the center of the dish. The dish was incubated in growth room for several days. The percent disease control was derived from the radii of spore growth. The screening tests in vitro condition are well-known to those skilled in the art.
(§3) The following fungi were used for the screening.

Pyricalaria oryzae = assay: In vitro mycelial/spore growth on potato-sucrose-agar, percent disease control (PO); details: read-out: % controlled, PO
Experimental: as §1, §2, §3
6) Py. or.; Pyricalaria oryzae

Fusarium moniliforme = assay: In vitro mycelial/spore growth on potato-sucrose-agar, percent disease control (FM); details: Fusarium verticillioides, Fusarium moniliforme, read-out: % controlled, FM
Experimental: as §1, §2, §3
8) Fu. mo.; Fusarium moniliforme

Phytophthora capsisi = assay: In vitro mycelial/spore growth on potato-sucrose-agar, percent disease control (PC); details: read-out: % controlled, PC
Experimental: as §1, §2, §3
2) Phy. ca.; Phytophthora capsisi

Botritis cinerea = assay: In vitro mycelial/spore growth on potato-sucrose-agar, percent disease control (BC); details: read-out: % controlled, BC
Experimental: as §1, §2, §3
10) Bo. ci.; Botritis cinerea

Rhizoctonia solani = assay: In vitro mycelial/spore growth on potato-sucrose-agar, percent disease control (RS, first column); details: read-out: % controlled, RS
Experimental: as §1, §2, §3
7) Rhi. so.; Rhizoctonia solani

Rhizopus sp. = assay: In vitro mycelial/spore growth on potato-sucrose-agar, percent disease control (RS, second column); details: read-out: % controlled, RS; for inhibition of growth at 50 ppm: Rhizopus sp.; for inhibition of growth at 200 ppm: Rhizopus
Experimental: as §1, §2, §3
9) Rhi. sp.; Rhizopus sp.

Botryosphaeri = assay: In vitro mycelial/spore growth on potato-sucrose-agar, percent disease control (BD); details: read-out: % controlled, BD
Experimental: as §1, §2, §3
4) Bo. do (Ma); Botryosphaeri

Compound	inhibition of growth at 50 ppm (GC) [%]	inhibition of growth at 200 ppm (GC) [%]	inhibition of growth at 50 ppm (Pyricalaria oryzae) [%]	inhibition of growth at 200 ppm (Pyricalaria oryzae) [%]	inhibition of growth at 50 ppm (Fusarium moniliforme) [%]	inhibition of growth at 200 ppm (Fusarium moniliforme) [%]	inhibition of growth at 50 ppm (Phytophthora capsisi) [%]	inhibition of growth at 200 ppm (Phytophthora capsisi) [%]	inhibition of growth at 50 ppm (Botritis cinerea) [%]	inhibition of growth at 200 ppm (Botritis cinerea) [%]	inhibition of growth at 50 ppm (Rhizoctonia solani) [%]	inhibition of growth at 200 ppm (Rhizoctonia solani) [%]	inhibition of growth at 50 ppm (Rhizopus sp.) [%]	inhibition of growth at 200 ppm (Rhizopus sp.) [%]	inhibition of growth at 50 ppm (Botryosphaeri) [%]	inhibition of growth at 200 ppm (Botryosphaeri) [%]
Clc1ccc([Si]2(Cn3cncn3)CCCCC2)c(Cl)c1 [1-(2,4-dichlorophenyl)-1-(1H-1,2,4-triazole-1-yl)methyl-1-silacyclohexane]	100	100	100	100	100	100	65	87	97	100	20	50	50	72	98	100
Clc1ccc([Si]2(Cn3cncn3)CCCC2)c(Cl)c1 [1-(2,4-dichlorophenyl)-1-(1H-1,2,4-triazole-1-yl)methyl-1-silacyclopentane]	100	100	100	100	100	100	72	79	99	100	65	100	59	70	97	100
CC(n1cncn1)[Si]1(c2ccc(Cl)cc2Cl)CCCC1 (stereo not drawn) [1-(2,4-dichlorophenyl)-1-[α-(1H-1,2,4-triazole-1-yl)ethyl)-1-silacyclopentane]	100	100	100	100	100	100	83	96	92	100	69	87	68	94	95	100
CC(n1cncn1)[Si]1(c2ccc(Cl)cc2Cl)CCCCC1 (stereo not drawn) [1-(2,4-dichlorophenyl)-1-[α-(1H-1,2,4-triazole-1-yl)ethyl]-1-silacyclohexane]	100	100	100	100	100	100	64	100	100	100	100	100	54	60	100	100
Fc1ccc([Si]2(Cn3cncn3)CCCCC2)c(F)c1 [1-(2,4-difluorophenyl)-1-(1H-1,2,4-triazole-1-yl)methyl-1-silacyclohexane]	100	100	100	100	100	100	67	89	100	100	41	61	53	61	100	100
Fc1ccc([Si]2(Cn3cncn3)CCCC2)c(F)c1 [1-(2,4-difluorophenyl)-1-(1H-1,2,4-triazole-1-yl)methyl-1-silacyclopentane]	100	100	100	100	100	100	32	85	100	100	76	100	63	72	100	100
CC(n1cncn1)[Si]1(c2ccc(F)cc2F)CCCCC1 (stereo not drawn) [1-(2,4-difluorophenyl)-1-[α-(1H-1,2,4-triazole-1-yl)ethyl]-1-silacyclohexane]	100	100	100	100	100	100	82	100	100	100	96	100	53	79	100	100
CC(n1cncn1)[Si]1(c2ccc(F)cc2F)CCCC1 (stereo not drawn) [1-(2,4-difluorophenyl)-1-[α-(1H-1,2,4-triazole-1-yl)ethyl]-1-silacyclopentane]	100	100	100	100	100	100	45	94	100	100	79	100	78	87	100	100
c1ccc(-c2ccc([Si]3(Cn4cncn4)CCCCC3)cc2)cc1 [1-(4-biphenyl)-1-(1H-1,2,4-triazole-1-yl)methyl-1-silacyclohexane]	100	100	100	100	100	100	92	100	100	100	71	80	72	94	100	100
c1ccc(-c2ccc([Si]3(Cn4cncn4)CCCC3)cc2)cc1 [1-(4-biphenyl)-1-(1H-1,2,4-triazole-1-yl)methyl-1-silacyclopentane]	100	100	100	100	47	100	68	100	15	30	89	93	69	72	72	72
